Data published in paper PMC8401736, “Identification and In Silico Characterization of Novel Helicobacter pylori Glucose-6-Phosphate Dehydrogenase Inhibitors” (Molecules, 2021).

Columns and labels:
[1] = tested on: recombinant HpG6PD (H. pylori glucose-6-phosphate dehydrogenase); test: High-throughput screening of HpG6PD residual activity at 400 μM; format: biochemical, Helicobacter pylori; conditions: 400 μM compound, 5% DMSO, 0.2 mg/mL HpG6PD, 37 °C for two hours
Protocol: (§1) Enzymatic activity was spectrophotometrically determined following the reduction of NADP^+ at 340 nm. The standard reaction mix contains 50 mM Tris-HCl, pH 7.6, 3 mM MgCl2, 200 µM glucose 6 phosphate and 100 µM NADP^+. The reaction was started with the addition of 1 µg of the purified HpG6PD. One unit of activity was defined as the amount of HpG6PD that catalyzes the oxidation of 1 µmol of glucose 6 phosphate per minute.
A chemical library of 55 compounds was evaluated through high-throughput screening (HTS) assays to determine those compounds with the ability to reduce the catalytic activity of the recombinant HpG6PD. Dr. Gabriel Navarrete-Vázquez from the Pharmacy Faculty of the Autonomous University of the State of Morelos provided the chemical compounds [32]. These compounds were selected based on the previously reported chemical inhibitors of human G6PD [21], prepared at a final concentration of 400 μM in 5% dimethyl sulfoxide (DMSO) (Sigma Aldrich, St. Louis, MO, USA), incubated with 0.2 mg/mL of HpG6PD (200 ng total) at 37 °C for two hours, and the HpG6PD residual activity was measured. In addition, the HpG6PD protein was incubated with 5% DMSO and used as a control.

[2] = molecular target: HpG6PD enzyme (Helicobacter pylori, UniProt P56110); test: Inactivation assays of the HpG6PD enzyme with increasing concentrations of compounds; format: biochemical; conditions: for inhibition at 800 µM: 2 h, read-out: loss of HpG6PD activity; for IC50: from plots of residual activity after incubation for 2 h at 37 °C, 200 μg/mL HpG6PD; for reduction of HpG6PD activity: at the highest concentration tested
Chain of HpG6PD enzyme (P56110 whole entry): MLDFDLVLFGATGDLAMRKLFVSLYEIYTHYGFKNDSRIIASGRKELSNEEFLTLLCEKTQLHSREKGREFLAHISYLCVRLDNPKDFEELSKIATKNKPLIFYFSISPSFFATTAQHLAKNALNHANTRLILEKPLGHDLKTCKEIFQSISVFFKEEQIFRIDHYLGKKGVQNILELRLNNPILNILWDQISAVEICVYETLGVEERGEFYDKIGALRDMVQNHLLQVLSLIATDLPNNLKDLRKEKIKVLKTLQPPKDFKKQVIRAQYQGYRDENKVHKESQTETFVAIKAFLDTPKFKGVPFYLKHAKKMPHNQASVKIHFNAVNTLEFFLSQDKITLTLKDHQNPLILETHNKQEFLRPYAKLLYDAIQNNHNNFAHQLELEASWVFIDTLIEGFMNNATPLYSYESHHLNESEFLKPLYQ
Protocol: Subsequently, we performed inactivation assays using different concentrations of compounds to analyze their concentration–activity effect. […] As each of the compound’s concentrations was increased, the residual HpG6PD activity decreased in different degrees. For example, the exposure of the HpG6PD enzyme to YGC-3 and YGC-4 induced the abolition of the enzyme activity in a very similar manner (Figure 3A), the HpG6PD enzyme lost 80% of its activity at 800 µM, but when the enzyme was incubated with YGC-1, we observed a 91% loss in activity at 800 μM. On the other hand, MGD-1 and MGD-2 inactivated the HpG6PD enzyme, with 80% and 72% reductions, respectively, at the highest concentration tested (Figure 3B). […] In contrast, JMM-3 inhibited the HpG6PD enzyme at 80% with 800 µM (Figure 3D).
Figure 3 Inactivation assays of the HpG6PD enzyme with chemical compounds. The HpG6PD protein was adjusted at a final concentration of 200 μg/mL and incubated with increasing concentrations of the (A) YGC family; (B) MGD family; (C) TDA-1 compound; and (D) JMM-3 compound. The residual activity was determined after 2 h of incubation at 37 °C. […] The values represent the mean ± standard deviation from three independent experiments, and standard errors were lower than 5%.
as §1

[3] = molecular target: recombinant human HsG6PD (Homo sapiens, UniProt P11413); test: Inhibition of recombinant human HsG6PD at 400 μM; format: biochemical; conditions: 400 μM compound
Chain of recombinant human HsG6PD (P11413 whole entry): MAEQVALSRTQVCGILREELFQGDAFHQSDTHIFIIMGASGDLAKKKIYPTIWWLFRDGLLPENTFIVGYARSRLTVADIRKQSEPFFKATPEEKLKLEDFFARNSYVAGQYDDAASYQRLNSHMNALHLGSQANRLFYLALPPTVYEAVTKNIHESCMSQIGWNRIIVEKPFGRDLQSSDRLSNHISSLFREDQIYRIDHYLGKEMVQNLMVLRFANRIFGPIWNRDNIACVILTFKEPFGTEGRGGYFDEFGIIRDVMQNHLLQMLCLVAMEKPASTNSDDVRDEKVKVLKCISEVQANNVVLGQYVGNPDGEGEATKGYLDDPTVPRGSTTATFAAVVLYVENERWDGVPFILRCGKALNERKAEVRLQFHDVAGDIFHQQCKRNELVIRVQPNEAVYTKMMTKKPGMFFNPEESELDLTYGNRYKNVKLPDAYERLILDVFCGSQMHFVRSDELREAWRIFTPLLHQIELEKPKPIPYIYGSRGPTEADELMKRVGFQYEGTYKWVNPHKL

What does the source list for COc1cc(CCC(=O)O)ccc1OCc1ccc(-c2ccccc2C#N)cc1 [JMM-3]?
HpG6PD Inhibition (%) at (400 μM) [1]: 67%; inhibition at 800 µM [2]: 80%; IC50 [2]: 304 µM; inhibition at 400 µM [3]: 3%

How did the “HpG6PD Inhibition (%) at (400 μM)” value [1] turn out when O=C(O)CCc1ccc(NC(=O)CSc2nc3ccccc3[nH]2)cc1 [MGD-1] was run?
The value was 50%.

What about the “reduction of HpG6PD activity” value ([2]; incubation for 2 h at 37 °C) of the same compound?
The value was 80%.

What about the IC50 [2] of the same compound?
The IC50 was 465 µM.

And the inhibition at 400 µM [3]?
Its inhibition at 400 µM is 4%.

O=C(O)CCc1ccc(NC(=O)CSc2nc3ccccc3o2)cc1 [MGD-2] was tested. Which “HpG6PD Inhibition (%) at (400 μM)” value [1] did it give?
The value was 55%.

And the “reduction of HpG6PD activity” value ([2]; incubation for 2 h at 37 °C)?
Its value is 72%.

And the IC50 [2]?
The IC50 was 340 µM.

What about the inhibition at 400 µM [3] of the same compound?
The inhibition at 400 µM was 2%.

Which results are given for COc1cc(/C=C2\SC(=O)NC2=O)ccc1OCCN1CCCCC1 [TDA-1]?
HpG6PD Inhibition (%) at (400 μM) ([1]; 400 µM): 91%; loss of HpG6PD activity ([2]; by 500 µM, incubation for 2 h at 37 °C): total loss of activity; IC50 [2]: 204 µM; inhibition at 400 µM [3]: 10%

For COc1ccc(/C=C2\SC(=O)NC2=O)cc1OCc1cccc2ccccc12 [YGC-1], which “HpG6PD Inhibition (%) at (400 μM)” value [1] is on record?
The value was 84%.

What about the inhibition at 800 µM [2] of the same compound?
The inhibition at 800 µM was 91%.

And the IC50 [2]?
Its IC50 is 310 µM.

What about the inhibition at 400 µM [3] of the same compound?
Its inhibition at 400 µM is 8%.

Which results are given for COc1ccc(/C=C2\SC(=O)NC2=O)cc1OCc1cccc(-c2ccccc2)c1 [YGC-3]?
HpG6PD Inhibition (%) at (400 μM) [1]: 50%; inhibition at 800 µM [2]: 80%; IC50 [2]: 383 µM; inhibition at 400 µM [3]: 0%

Which results are given for COc1ccc(/C=C2\SC(=O)NC2=O)cc1Oc1nc2ccccc2[nH]1 [YGC-4]?
HpG6PD Inhibition (%) at (400 μM) [1]: 44%; inhibition at 800 µM [2]: 80%; IC50 [2]: 500 µM; inhibition at 400 µM [3]: 18%
